Literature values in patent US9290518B2, “Water soluble metal-organic frameworks (MOFs)” (Council of Scientific and Industrial Research, priority 2011, dated 2016).

Settings: 25° C., 98% RH, literature

proton conductivity: 1.1×10^−3 S cm^−1
SMILES: O=C1N2CN3C(=O)N4CN5C(=O)N6CN7C(=O)N8CN9C(=O)N%10CN%11C(=O)N%12CN1C1C2N2CN%13C(=O)N(CN%14C(=O)N(CN%15C(=O)N(CN%16C(=O)N(CN%17C(=O)N(CN1C2=O)C%12C%11%17)C%10C9%16)C8C7%15)C6C5%14)C4C3%13 (stereo not shown) [cucurbit [6]uril]
